One compound from ChEMBL document CHEMBL4229412, “Design, synthesis, in vitro and in vivo evaluation, and structure-activity relationship (SAR) discussion of novel dipeptidyl boronic acid proteasome inhibitors as orally available anti-cancer agents for the treatment of multiple myeloma and mechanism studies” (Bioorg Med Chem, 2018) can be followed below.

This data set in a line: in vivo. The conditions noted are these: Sprague-Dawley, rat, po, 1.2 mg/kg.

Usually bioavailability stands for dose-corrected exposure relative to a reference, in per cent. Low values mean little systemic uptake, high ones much systemic uptake.

Consider `CC(C)C[C@H](NC(=O)CNC(=O)c1cc(Cl)ccc1Cl)B(O)O` [IXAZOMIB], for which the bioavailability is 27.8%.
